Structures are written as SMILES.

What is called melting point is the temperature of the solid-liquid transition.

Series [1] concerns Fusarium culmorum. The series is described as follows: microbe, parasite or virus in culture. Particulars: read-out: control of Fusarium culmorum. The format is cell-based.
Series [2] deals with Glomerella lagenarium (Colletotrichum lagenarium). The series is described as follows: Glomerella lagenarium (Colletotrichum lagenarium)/Liquid Culture (Anthracnose). The format is cell-based. The settings on record: Colletotrichum orbiculare; 200 ppm; liquid culture, compared to untreated control, 3-4 days after application; read-out: control of Glomerella lagenarium.
Series [3] has as its system Botryotinia fuckeliana (Botrytis cinerea). The series is described as follows: Botryotinia fuckeliana (Botrytis cinerea)/Liquid Culture (Gray Mould). In kind it is cell-based. The settings on record: 200 ppm, liquid culture, compared to untreated control, 3-4 days after application, read-out: control of Botryotinia fuckeliana.
The test system of series [4] is Magnaporthe grisea (Pyricularia oryzae). The series is described as follows: microbe, parasite or virus in culture. The format is cell-based. The settings on record: read-out: control of Magnaporthe grisea.
The subject of series [5] is Monographella nivalis (Microdochium nivale). The series is described as follows: Monographella nivalis (Microdochium nivale)/Liquid Culture (Foot Rot Cereals). In kind it is cell-based. Particulars: 200 ppm, liquid culture, compared to untreated control, 4-5 days after application, read-out: control of Monographella nivalis.
The test system of series [6] is Fusarium culmorum. The series is described as follows: whole plant or invertebrate. The format is in vivo. The settings on record: in Triticum aestivum, read-out: control of Fusarium culmorum.

Regarding `CN(C(=O)C(C)(Cc1ccccc1)CC(F)(F)F)c1cnc2c(F)cccc2c1` (stereo not shown) [Compound E-42, 2-benzyl-4,4,4-trifluoro-N-(8-fluoro-3-quinolyl)-N,2-dimethyl-butanamide], the melting point lay within 137 to 139 °C. Further, the inhibition of growth at 200 ppm with Fusarium culmorum [1] was not below 80%. Also, the inhibition of growth at 200 ppm in series [2] is not below 80%. The inhibition of growth at 200 ppm in series [3] is not below 80%. Besides, in series [4], the inhibition of growth at 200 ppm is not below 80%.

The molecule `Cc1nc2c(F)cccc2cc1NC(=O)C(Cc1ccccc1)CC1(C)CC1` (stereo not shown) came in with a melting point of 162 to 163 °C.

As to `C=C(Cl)CC(Cc1ccccc1)C(=O)Nc1cc2cccc(F)c2nc1C` (stereo not shown) [Compound E-4, 2-benzyl-4-chloro-N-(8-fluoro-2-methyl-3-quinolyl)pent-4-enamide], the melting point fell in the range of 96 to 99 °C. Moreover, the inhibition of growth at 200 ppm in the series on Fusarium culmorum [1] is not below 80%. Moreover, the inhibition of growth at 200 ppm in series [2] was not below 80%. Further, in series [3], the inhibition of growth at 200 ppm is not below 80%.

Molecule `CC1(CC(Cc2ccccc2)C(=O)Nc2cnc3c(F)cccc3c2)CC1` (stereo not shown) came in with a melting point of 135 to 136 °C.

With `CC(C)OC(C)(Cc1ccccc1)C(=O)Nc1cnc2c(F)cccc2c1` (stereo not shown) [Compound E-40, N-(8-fluoro-3-quinolyl)-2-isopropoxy-2-methyl-3-phenyl-propanamide], the inhibition of growth at 200 ppm (in the series with Fusarium culmorum [1]; in series [2]; in series [3]; in series [4]; in series [5]) was not below 80% each time. In the series with Fusarium culmorum [6], the pest or weed control at 200 ppm was not below 80%.

In the case of `Cc1c(NC(=O)C(Cc2ccccc2)CC2(C)CC2)cnc2c(F)cccc12` (stereo not shown), the melting point fell in the range of 144 to 146 °C.

Consider `C=C(C)CC(C)(Cc1ccccc1)C(=O)Nc1cnc2ccccc2c1` (stereo not shown) [Compound E-64, 2-benzyl-2,4-dimethyl-N-(3-quinolyl)pent-4-enamide], for which the inhibition of growth at 200 ppm (in the series with Fusarium culmorum [1]; in series [2]; in series [3]; in series [4]; in series [5]) was not below 80% in each case. The pest or weed control at 200 ppm in the series on Fusarium culmorum [6] was not below 80%.

As for `Cc1nc2c(F)cccc2cc1NC(=O)C(C)(Cc1ccccc1)OC(C)C` (stereo not shown) [Compound E-39, N-(8-fluoro-2-methyl-3-quinolyl)-2-isopropoxy-2-methyl-3-phenyl-propanamide], the inhibition of growth at 200 ppm (with Fusarium culmorum [1]; in series [2]; in series [3]; in series [4]; in series [5]) was not below 80% throughout. Besides, the pest or weed control at 200 ppm with Fusarium culmorum [6] is not below 80%.

For `C/C=C(\C)CC(C)(Cc1ccccc1)C(=O)Nc1cnc2c(F)cccc2c1` (stereo not shown) [Compound E-32, (E)-2-benzyl-N-(8-fluoro-3-quinolyl)-2,4-dimethyl-hex-4-enamide], the inhibition of growth at 200 ppm (with Fusarium culmorum [1]; in series [2]; in series [3]; in series [4]; in series [5]) was not below 80% throughout. Further, the pest or weed control at 200 ppm in the series with Fusarium culmorum [6] was not below 80%.

On to `CC(Cc1ccccc1)(CC(F)(F)F)C(=O)Nc1cnc2cccc(F)c2c1` (stereo not shown) [Compound E-49, 2-benzyl-4,4,4-trifluoro-N-(5-fluoro-3-quinolyl)-2-methyl-butanamide], for which the melting point fell in the range of 140 to 142 °C. Besides, the inhibition of growth at 200 ppm in the series on Fusarium culmorum [1] is not below 80%. Moreover, in series [3], the inhibition of growth at 200 ppm is not below 80%. Further, the inhibition of growth at 200 ppm in series [4] was not below 80%.

In the case of `CC(Cc1ccccc1)(CC(F)F)C(=O)Nc1cnc2c(F)cccc2c1` (stereo not shown) [Compound E-55, 2-benzyl-4,4-difluoro-N-(8-fluoro-3-quinolyl)-2-methyl-butanamide], the inhibition of growth at 200 ppm (with Fusarium culmorum [1]; in series [2]; in series [3]; in series [4]; in series [5]) was not below 80% each time. In addition, in the series with Fusarium culmorum [6], the pest or weed control at 200 ppm is not below 80%.
